# Laboratory results taken from PubChem BioAssay AID743475 (The Scripps Research Institute Molecular Screening Center, 2014).
# Activity calls are given as the source filed them. How the calls were made is not given here.
# Test system: OTUB2
# Test: late-stage follow-up, selectivity assay for CCHF vOTU protease inhibitor project, biochemical, fluorescence, assay provider (AID 743475)
# Conditions: recombinant OTUB2, fluorogenic ubiquitin substrate, hits give high values
smiles,measurement,setting,value
O=C(COC(=O)c1ccc([N+](=O)[O-])s1)Nc1ncc(C(F)(F)F)cc1Cl,inhibition,"run 1, at 27.79 µM",42.3%
NS(=O)(=O)c1ccc(NC2=CC(=O)C(=O)c3ccccc32)cc1,inhibition,"run 1, at 11.51 µM",78.7%
O=C(COC(=O)c1ccc([N+](=O)[O-])s1)Nc1ccc(F)cc1,inhibition,"run 1, at 26.34 µM",40.3%
CN(C1=C(NC(=O)c2ccccc2)C(=O)c2ccccc2C1=O)C1CCS(=O)(=O)C1 (centres undefined),inhibition,"run 2, at 19.2 µM",57.8%
O=C1Cc2ccccc2C(=O)N1CCc1ccccc1,inhibition,"run 2, at 3.02 µM",14.9% (inactive)
NS(=O)(=O)c1ccc(NC(=O)COC(=O)c2ccc([N+](=O)[O-])s2)cc1,inhibition,"run 1, at 29.01 µM",37.5%
CC1CCCC(NC(=O)COC(=O)c2ccc([N+](=O)[O-])s2)C1C (centres undefined),inhibition,"run 1, at 31.32 µM",33.7%
CCn1nc(/C=C/c2ccccc2)nc2c(=O)n(C)c(=O)nc1-2,inhibition,"run 1, at 0.49 µM",98.8%
COC1=C(N)C(=O)c2nc(C)ccc2C1=O,inhibition,"run 1, at 4.98 µM",67.6%
COc1ccc2noc3c2c1C(=O)c1ccccc1-3,inhibition,"run 1, at 6.28 µM",170%
COc1ccccc1NC(=O)COC(=O)c1ccc([N+](=O)[O-])s1,inhibition,"run 1, at 35.07 µM",61.9%
O=C(NC1=C(NC2CCS(=O)(=O)C2)C(=O)c2ccccc2C1=O)c1ccccc1 (centres undefined),inhibition,"run 1, at 14.2 µM",56.9%
O=C1C=C(Nc2ccccc2)c2ccccc2C1=O,inhibition,"run 1, at 15.55 µM",75.6%
O=C(/C=C/c1ccc(O)cc1)c1ccc(NC2=C(N3CCCCC3)C(=O)c3ccccc3C2=O)cc1,inhibition,"run 1, at 10.17 µM",30.7%
CCc1cc[n+](C2=C(NS(=O)(=O)c3cccs3)C(=O)c3ccccc3C2=O)cc1,inhibition,"run 1, at 14.16 µM",54%
Cc1ccc(NC2=CC(=O)C(=O)c3ccccc32)cc1,inhibition,"run 1, at 12.24 µM",78.7%
O=C1Cc2ccccc2C(=O)N1Cc1ccccc1,inhibition,"run 1, at 1.31 µM",68.4%
Cc1ccc2c(c1C)-c1c(ccc(C)c1C)C(=O)C2=O,inhibition,"run 1, at 18.9 µM",60.1%
CC1COCC(C)N1C1=C(Cl)C(=O)c2ccccc2C1=O (centres undefined),inhibition,"run 1, at 14.67 µM",23.6%
O=C1Cc2ccccc2C(=O)N1,inhibition,"run 1, at 0.6 µM",67.3%
O=C(NC1=CC(=O)c2ccccc2C1=O)c1ccccc1,inhibition,"run 1, at 12.37 µM",46.4%
COc1cc(Br)c(C(=O)c2nccc3cc(OC)c(OC)cc23)cc1OC,inhibition,"run 1, at 1.13 µM",17.2% (inactive)
O=c1[nH]c(Nc2ccccc2)cc2cc(Br)ccc12,inhibition,"run 1, at 1.45 µM",57.8%
Cc1ccccc1-c1cc2c(nn1)-c1ccccc1C2=O,inhibition,"run 2, at 4.46 µM",23.3%
Cc1c(Cl)cnc(NC(=O)COC(=O)c2ccc([N+](=O)[O-])s2)c1Cl,inhibition,"run 1, at 20.44 µM",49.9%
O=C(OCc1nnc(-c2ccccc2)o1)c1ccc([N+](=O)[O-])s1,inhibition,"run 1, at 26.04 µM",46.9%
COc1cc(NC(=O)COC(=O)c2ccc([N+](=O)[O-])s2)cc(OC)c1OC,inhibition,"run 1, at 21.72 µM",41.2%
Cc1ccc(N2C(=O)[C@@H]3[C@H](C2=O)C2c4ccccc4C=CN2[C@@H]3C(=O)c2ccco2)cc1 (some centres undefined),inhibition,"run 1, at 5.2 µM",55.4%
O=C(c1ccco1)[C@@H]1[C@@H]2C(=O)N(c3ccc(Br)cc3)C(=O)[C@@H]2C2c3ccccc3C=CN21 (some centres undefined),inhibition,"run 1, at 11.01 µM",91.8%
Cn1nc(-c2ccccn2)nc2c(=O)n(C)c(=O)nc1-2,inhibition,"run 1, at 1.16 µM",98%
O=C(COC(=O)c1ccc([N+](=O)[O-])s1)NCc1ccc(F)cc1,inhibition,"run 1, at 40.58 µM",39.9%
CC1(C)C=C2C(=NN(c3ccccc3)C(N)=C2C#N)CO1,inhibition,"run 1, at 23.49 µM",78.2%
CCOC(=O)N=Nc1c2ccccc2c2nc3no[nH]c3nc12,inhibition,"run 1, at 7.75 µM",37.8%
COC(CNC(=O)c1ccc2c3c(onc13)-c1ccccc1C2=O)OC,inhibition,"run 1, at 24.19 µM",58.5%
